{"source": "patent US12096772B2", "about": "“Herbicidal compositions” (SYNGENTA CROP PROTECTION AG, priority 2022, dated 2024)", "tested_on": "Amaranthus palmeri (AMAPA)", "test": "Post-emergence greenhouse percent control of Amaranthus palmeri", "type": "in vivo", "conditions": "herbicide alone; for Observed control 7DAA: 7 days after application; for Observed control 14DAA: 14 days after application; for Observed control 21DAA: 21 days after application", "description": "Seeds of Amaranthus palmeri (AMAPA) were sown in vero beach potting soil and grown in a greenhouse. The herbicides, alone and in combination, were applied post-emergence when the weeds were 3 to 4-inches along with adjuvants 2.5% v/v AMSOL® and 1% v/v AgriDex® using a spray TT110015 nozzle providing 15 gallons/acre. Percent control evaluations were performed at 7, 14, and 21 days after application.\nExpected action was calculated by the Colby formula."}
{"compound": "CS(=O)(=O)c1ccc(C(=O)C2C(=O)CCCC2=O)c([N+](=O)[O-])c1", "note": "[Mesotrione, mesotrione]", "values": [{"measurement": "Observed control 7DAA", "setting": "10 g ai/ha", "result": 75, "unit": "%"}, {"measurement": "Observed control 14DAA", "setting": "10 g ai/ha", "result": 63, "unit": "%"}, {"measurement": "Observed control 21DAA", "setting": "10 g ai/ha", "result": 62, "unit": "%"}]}
{"compound": "O=c1cc(Cl)[nH]nc1-c1ccccc1", "note": "[Pyridafol, pyridafol]", "values": [{"measurement": "Observed control 7DAA", "setting": "2.5 g ai/ha", "result": 0, "unit": "%"}, {"measurement": "Observed control 14DAA", "setting": "2.5 g ai/ha", "result": 0, "unit": "%"}, {"measurement": "Observed control 21DAA", "setting": "2.5 g ai/ha", "result": 0, "unit": "%"}, {"measurement": "Observed control 7DAA", "setting": "5 g ai/ha", "result": 0, "unit": "%"}, {"measurement": "Observed control 14DAA", "setting": "5 g ai/ha", "result": 0, "unit": "%"}, {"measurement": "Observed control 21DAA", "setting": "5 g ai/ha", "result": 0, "unit": "%"}, {"measurement": "Observed control 7DAA", "setting": "10 g ai/ha", "result": 0, "unit": "%"}, {"measurement": "Observed control 14DAA", "setting": "10 g ai/ha", "result": 0, "unit": "%"}, {"measurement": "Observed control 21DAA", "setting": "10 g ai/ha", "result": 0, "unit": "%"}, {"measurement": "Observed control 7DAA", "setting": "27 g ai/ha", "result": 5, "unit": "%"}, {"measurement": "Observed control 14DAA", "setting": "27 g ai/ha", "result": 2, "unit": "%"}, {"measurement": "Observed control 21DAA", "setting": "27 g ai/ha", "result": 0, "unit": "%"}, {"measurement": "Observed control 7DAA", "setting": "57 g ai/ha", "result": 17, "unit": "%"}, {"measurement": "Observed control 14DAA", "setting": "57 g ai/ha", "result": 10, "unit": "%"}, {"measurement": "Observed control 21DAA", "setting": "57 g ai/ha", "result": 3, "unit": "%"}, {"measurement": "Observed control 7DAA", "setting": "87 g ai/ha", "result": 23, "unit": "%"}, {"measurement": "Observed control 14DAA", "setting": "87 g ai/ha", "result": 15, "unit": "%"}, {"measurement": "Observed control 21DAA", "setting": "87 g ai/ha", "result": 13, "unit": "%"}, {"measurement": "Observed control 7DAA", "setting": "117 g ai/ha", "result": 23, "unit": "%"}, {"measurement": "Observed control 14DAA", "setting": "117 g ai/ha", "result": 17, "unit": "%"}, {"measurement": "Observed control 21DAA", "setting": "117 g ai/ha", "result": 7, "unit": "%"}]}
{"compound": "bicyclopyrone", "values": [{"measurement": "Observed control 7DAA", "setting": "10 g ai/ha", "result": 72, "unit": "%"}, {"measurement": "Observed control 14DAA", "setting": "10 g ai/ha", "result": 60, "unit": "%"}, {"measurement": "Observed control 21DAA", "setting": "10 g ai/ha", "result": 57, "unit": "%"}]}
